Eleven molecules from paper PMC6017545, “Design, Synthesis, and Biological Evaluation of Novel 1,3,4-Thiadiazole Derivatives as Potential Antitumor Agents against Chronic Myelogenous Leukemia: Striking Effect of Nitrothiazole Moiety” (Molecules : A Journal of Synthetic Chemistry and Natural …, 2017) can be followed below.

Structures are written as SMILES.

The subject of data set [1] is peripheral blood mononuclear cells (PBMC). The data set is described as follows: MTT cytotoxicity assay, PBMC. It counts as cell-based. (Tetrazolium dyes change colour on reduction, which living cells bring about.)
Protocol: (§1) HeLa human cervical carcinoma cells were incubated in Dulbecco’s modified Eagle’s medium (DMEM) (Wako Pure Chemical Industries, Osaka, Japan) supplemented with 10% fetal bovine serum (FBS) (Equitech-Bio, Kerrville, TX, USA). […] Growing cells were plated at 2 × 10^4 cells/mL into 24-well microtiter tissue culture plates (Iwaki brand Asahi Glass Co., Chiba, Japan) and incubated for 48 h before the addition of the drugs (the optimal cell number for cytotoxicity assays was determined in preliminary experiments). […] The concentration of DMSO in the final culture medium was 1%.
(§2) The level of cellular reduction of 3-(4,5-dimethylthiazol-2-yl)-2,5-diphenyltetrazolium bromide (MTT) (Dojindo Molecular Technologies, Kumamoto, Japan) was quantified as previously described in the literature with small modifications [46]. The tested compounds were incubated with cells in various concentrations for 48 h. […] The solution was removed, and the formazan crystals were solubilized by an addition of 100 μL DMSO. The absorbance of the converted dye in the living cells was measured at a wavelength of 550 nm using a microplate spectrophotometer Infinitive M1000 (Tecan, Groding, Austria). Cell viability was calculated as a percentage of the viable control cells.
Another data set concerns the target T1, SRC (Homo sapiens, UniProt P12931).
T1 construct: purchased Promega Corporation
The data set is described as follows: Kinase inhibition assay (TK-2 profiling, ADP-Glo), SRC. Type of data set: biochemical. For orientation: In ADP-Glo the light output rises with the ADP produced.

Another data set concerns the target BTK (Homo sapiens, UniProt Q06187). The data set is described as follows: Kinase inhibition assay (TK-2 profiling, ADP-Glo), BTK.
In the next data set the test system is HeLa cells. The data set is described as follows: Apoptotic/necrotic/healthy cells detection assay (annexin V/ethidium homodimer III staining). The following applies: IC50 concentration; for apoptotic activity: 3 h, approximately 100 stained cells counted; for apoptotic and necrotic effects: 24 h and 48 h, data not shown. It counts as cell-based, human. On the procedure: Then, detection of apoptotic/necrotic/healthy cells was performed according to the manufacturer’s instructions (PromoKine, Heidelberg, Germany). After the cells were washed twice with 1× binding buffer, a staining solution containing 50 μL of 1 × binding buffer, 2 μL of FITC-Annexin V solution, 2 μL of ethidium homodimer III solution, and 2 μL of Hoechst 33,342 solution was added and the cells were incubated for 15 min at room temperature (RT), protected from light. The cells were washed with 1 × binding buffer, analyzed by the all-in-one fluorescence microscope Biorevo Fluorescence BZ-9000 (Keyence, Osaka, Japan), and counted as described previously in [47].

Data set [2] concerns K562 chronic myelogenous leukemia cell line. The data set is described as follows: MTT cytotoxicity assay, K562 cells. The conditions noted are these: for IC50: Homo sapiens, K562, 48 h of incubation, mean ± SD, three independent experiments. Type of data set: cell-based, human.
Protocol: as §1, §2
The target in a further data set is T2, LCK (Homo sapiens, UniProt P06239).
T2 construct: purchased Promega Corporation
T2 sequence (P06239 whole entry): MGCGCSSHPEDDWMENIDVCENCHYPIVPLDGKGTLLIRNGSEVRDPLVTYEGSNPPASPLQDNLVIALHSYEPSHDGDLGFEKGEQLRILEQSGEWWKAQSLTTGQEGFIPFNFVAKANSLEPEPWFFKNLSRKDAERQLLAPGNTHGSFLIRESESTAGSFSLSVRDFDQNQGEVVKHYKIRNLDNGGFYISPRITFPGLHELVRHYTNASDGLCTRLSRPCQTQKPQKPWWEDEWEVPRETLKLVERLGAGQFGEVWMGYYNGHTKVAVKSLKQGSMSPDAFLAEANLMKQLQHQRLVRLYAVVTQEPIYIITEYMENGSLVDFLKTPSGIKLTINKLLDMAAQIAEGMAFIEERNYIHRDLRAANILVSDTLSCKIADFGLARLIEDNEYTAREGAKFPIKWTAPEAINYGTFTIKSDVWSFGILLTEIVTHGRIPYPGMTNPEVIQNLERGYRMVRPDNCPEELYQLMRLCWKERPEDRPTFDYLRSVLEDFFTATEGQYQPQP
The data set is described as follows: Kinase inhibition assay (TK-2 profiling, ADP-Glo), LCK. Type of data set: biochemical.

In another data set the target is FYN A (Homo sapiens, UniProt P06241). The data set is described as follows: Kinase inhibition assay (TK-2 profiling, ADP-Glo), FYN A.
Sequence of FYN A (P06241 whole entry): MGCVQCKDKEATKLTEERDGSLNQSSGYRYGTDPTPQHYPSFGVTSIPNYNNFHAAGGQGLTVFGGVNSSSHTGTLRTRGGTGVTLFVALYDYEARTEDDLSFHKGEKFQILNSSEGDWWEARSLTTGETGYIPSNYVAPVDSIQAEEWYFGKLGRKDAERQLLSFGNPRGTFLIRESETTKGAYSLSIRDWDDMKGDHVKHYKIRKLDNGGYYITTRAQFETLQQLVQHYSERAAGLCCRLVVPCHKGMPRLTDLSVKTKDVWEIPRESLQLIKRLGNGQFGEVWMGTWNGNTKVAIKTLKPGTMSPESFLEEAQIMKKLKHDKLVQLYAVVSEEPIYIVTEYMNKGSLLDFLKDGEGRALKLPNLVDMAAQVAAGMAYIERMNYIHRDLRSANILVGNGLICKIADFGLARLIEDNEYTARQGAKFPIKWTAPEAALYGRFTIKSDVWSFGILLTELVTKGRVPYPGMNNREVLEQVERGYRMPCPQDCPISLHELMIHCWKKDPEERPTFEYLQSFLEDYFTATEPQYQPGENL
The next data set has as its target BRK (Homo sapiens, UniProt Q13882). The data set is described as follows: Kinase inhibition assay (TK-2 profiling, ADP-Glo), BRK.
A further data set addresses LYN B (Homo sapiens, UniProt P07948). The data set is described as follows: Kinase inhibition assay (TK-2 profiling, ADP-Glo), LYN B.
A further data set has as its target CSK (Homo sapiens, UniProt P41240). The data set is described as follows: Kinase inhibition assay (TK-2 profiling, ADP-Glo), CSK.
Another data set deals with MT-2 cell line. The data set is described as follows: MTT cytotoxicity assay, MT-2 cells. It counts as cell-based. The conditions noted are these: Homo sapiens, MT2, 48 h of incubation, mean ± SD, three independent experiments.
For the next data set, the system named is Jurkat cell line. The data set is described as follows: MTT cytotoxicity assay, Jurkat cells. Type of data set: cell-based. The following applies: Homo sapiens, 48 h of incubation, mean ± SD, three independent experiments.
For data set [3], the system named is HeLa human cervical carcinoma cell line. The data set is described as follows: MTT cytotoxicity assay, HeLa cells. It counts as cell-based. The following applies: for IC50: Homo sapiens, HeLa, 48 h of incubation, mean ± SD, three independent experiments; for activity against the HeLa cell line (in words): 48 h.
Protocol: as §1, §2
Another data set deals with T3, ABL1 (Homo sapiens, UniProt P00519).
T3 construct: purchased Promega Corporation
T3 sequence (P00519 whole entry): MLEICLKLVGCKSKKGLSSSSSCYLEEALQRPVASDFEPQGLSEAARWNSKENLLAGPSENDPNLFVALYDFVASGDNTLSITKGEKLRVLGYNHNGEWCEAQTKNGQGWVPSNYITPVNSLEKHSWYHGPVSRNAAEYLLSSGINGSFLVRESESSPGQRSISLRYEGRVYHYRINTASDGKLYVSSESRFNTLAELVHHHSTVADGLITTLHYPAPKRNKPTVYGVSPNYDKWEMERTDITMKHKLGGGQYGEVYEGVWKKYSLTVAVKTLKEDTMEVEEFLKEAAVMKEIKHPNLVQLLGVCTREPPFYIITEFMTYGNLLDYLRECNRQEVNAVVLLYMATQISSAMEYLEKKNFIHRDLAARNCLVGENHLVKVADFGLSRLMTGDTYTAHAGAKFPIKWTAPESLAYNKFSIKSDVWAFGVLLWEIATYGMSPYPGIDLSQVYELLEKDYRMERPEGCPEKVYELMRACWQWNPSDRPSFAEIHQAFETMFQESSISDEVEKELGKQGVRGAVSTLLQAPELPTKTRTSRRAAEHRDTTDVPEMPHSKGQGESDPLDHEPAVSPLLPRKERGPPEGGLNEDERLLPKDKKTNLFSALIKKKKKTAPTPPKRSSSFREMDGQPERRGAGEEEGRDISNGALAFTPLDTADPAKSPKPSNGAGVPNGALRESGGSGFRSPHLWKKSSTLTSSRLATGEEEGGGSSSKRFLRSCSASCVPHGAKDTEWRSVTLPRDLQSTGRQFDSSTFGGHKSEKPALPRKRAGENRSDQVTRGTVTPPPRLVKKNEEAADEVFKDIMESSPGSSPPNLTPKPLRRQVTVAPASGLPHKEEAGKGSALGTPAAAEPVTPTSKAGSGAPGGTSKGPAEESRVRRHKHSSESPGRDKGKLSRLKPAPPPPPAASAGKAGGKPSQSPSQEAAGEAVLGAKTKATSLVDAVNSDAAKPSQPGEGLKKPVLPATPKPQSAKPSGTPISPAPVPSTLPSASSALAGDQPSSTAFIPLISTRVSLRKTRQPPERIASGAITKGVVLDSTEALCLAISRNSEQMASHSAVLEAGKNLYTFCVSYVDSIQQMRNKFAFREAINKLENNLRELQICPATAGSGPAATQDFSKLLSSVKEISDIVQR
The data set is described as follows: Kinase inhibition assay (TK-2 profiling, ADP-Glo), ABL1. It counts as biochemical. The conditions noted are these: 1 h at room temperature.

[4] abbreviates: ADP-Glo, 1 h at room temperature.

Sequence of BTK (Q06187 whole entry): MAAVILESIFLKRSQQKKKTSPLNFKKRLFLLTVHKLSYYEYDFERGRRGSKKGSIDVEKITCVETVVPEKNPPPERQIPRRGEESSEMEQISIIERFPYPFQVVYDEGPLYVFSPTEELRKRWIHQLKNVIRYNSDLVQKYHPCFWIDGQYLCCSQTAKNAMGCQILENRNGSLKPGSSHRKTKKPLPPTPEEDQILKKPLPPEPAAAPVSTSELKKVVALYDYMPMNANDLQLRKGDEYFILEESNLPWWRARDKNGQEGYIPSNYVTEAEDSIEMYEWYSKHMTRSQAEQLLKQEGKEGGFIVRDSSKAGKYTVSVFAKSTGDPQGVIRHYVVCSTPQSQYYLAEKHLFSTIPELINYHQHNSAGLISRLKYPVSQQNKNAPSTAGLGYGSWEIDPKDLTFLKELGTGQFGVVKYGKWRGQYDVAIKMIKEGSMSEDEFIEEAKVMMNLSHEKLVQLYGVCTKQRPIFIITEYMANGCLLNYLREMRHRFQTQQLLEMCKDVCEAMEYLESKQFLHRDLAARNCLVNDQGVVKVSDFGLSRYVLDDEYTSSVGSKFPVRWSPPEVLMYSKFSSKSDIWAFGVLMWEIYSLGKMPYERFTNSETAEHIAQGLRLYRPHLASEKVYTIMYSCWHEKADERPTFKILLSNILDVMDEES
Sequence of LYN B (P07948 1-491 isoform P07948-2): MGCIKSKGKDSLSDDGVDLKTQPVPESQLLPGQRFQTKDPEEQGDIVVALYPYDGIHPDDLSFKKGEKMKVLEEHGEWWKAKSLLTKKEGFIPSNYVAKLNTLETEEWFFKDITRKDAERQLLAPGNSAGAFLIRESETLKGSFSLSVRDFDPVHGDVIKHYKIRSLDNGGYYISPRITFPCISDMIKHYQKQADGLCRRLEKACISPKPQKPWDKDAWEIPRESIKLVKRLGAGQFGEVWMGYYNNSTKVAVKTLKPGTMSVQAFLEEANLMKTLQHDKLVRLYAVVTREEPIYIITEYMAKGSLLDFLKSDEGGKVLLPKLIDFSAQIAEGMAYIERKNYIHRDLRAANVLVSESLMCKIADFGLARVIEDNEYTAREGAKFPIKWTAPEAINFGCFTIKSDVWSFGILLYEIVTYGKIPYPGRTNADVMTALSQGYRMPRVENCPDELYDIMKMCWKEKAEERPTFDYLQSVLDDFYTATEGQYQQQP
Sequence of BRK (Q13882 whole entry): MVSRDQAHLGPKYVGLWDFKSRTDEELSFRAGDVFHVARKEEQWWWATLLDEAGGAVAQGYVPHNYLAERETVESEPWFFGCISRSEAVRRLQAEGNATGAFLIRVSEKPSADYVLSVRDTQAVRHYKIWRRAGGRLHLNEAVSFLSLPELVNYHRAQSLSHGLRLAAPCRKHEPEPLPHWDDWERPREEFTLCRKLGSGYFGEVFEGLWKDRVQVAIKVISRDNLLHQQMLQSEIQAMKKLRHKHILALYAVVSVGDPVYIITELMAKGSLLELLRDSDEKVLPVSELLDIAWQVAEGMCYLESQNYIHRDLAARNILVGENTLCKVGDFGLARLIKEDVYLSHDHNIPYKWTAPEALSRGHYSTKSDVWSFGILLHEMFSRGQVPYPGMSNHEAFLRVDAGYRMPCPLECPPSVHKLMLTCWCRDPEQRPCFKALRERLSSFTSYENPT
T1 sequence (P12931 whole entry): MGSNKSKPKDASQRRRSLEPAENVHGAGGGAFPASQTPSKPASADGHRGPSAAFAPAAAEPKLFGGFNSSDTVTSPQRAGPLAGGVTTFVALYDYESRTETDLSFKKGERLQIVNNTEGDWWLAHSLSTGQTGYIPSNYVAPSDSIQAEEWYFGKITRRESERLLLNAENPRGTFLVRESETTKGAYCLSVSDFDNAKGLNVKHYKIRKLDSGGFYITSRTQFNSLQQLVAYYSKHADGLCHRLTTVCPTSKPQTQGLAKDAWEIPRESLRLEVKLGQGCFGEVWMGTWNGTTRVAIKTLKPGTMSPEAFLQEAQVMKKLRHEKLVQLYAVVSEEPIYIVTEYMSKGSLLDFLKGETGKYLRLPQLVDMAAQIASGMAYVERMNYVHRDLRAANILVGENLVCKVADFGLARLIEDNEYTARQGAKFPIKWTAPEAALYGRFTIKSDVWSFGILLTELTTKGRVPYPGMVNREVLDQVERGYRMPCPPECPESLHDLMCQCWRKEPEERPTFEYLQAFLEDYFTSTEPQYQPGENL
Sequence of CSK (P41240 whole entry): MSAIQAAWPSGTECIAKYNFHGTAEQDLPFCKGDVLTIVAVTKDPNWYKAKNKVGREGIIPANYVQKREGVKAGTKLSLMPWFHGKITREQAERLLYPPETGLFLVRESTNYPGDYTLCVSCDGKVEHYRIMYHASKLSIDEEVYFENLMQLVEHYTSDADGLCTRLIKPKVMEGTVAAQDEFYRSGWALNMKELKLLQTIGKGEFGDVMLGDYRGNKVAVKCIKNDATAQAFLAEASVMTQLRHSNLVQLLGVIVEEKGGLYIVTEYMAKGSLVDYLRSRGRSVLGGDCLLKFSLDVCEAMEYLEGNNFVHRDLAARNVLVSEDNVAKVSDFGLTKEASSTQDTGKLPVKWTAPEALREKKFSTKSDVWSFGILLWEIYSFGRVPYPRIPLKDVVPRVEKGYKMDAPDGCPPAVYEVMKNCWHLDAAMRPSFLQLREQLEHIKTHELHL
Protocol for ABL1: (§3) Kinase selectivity profiling system (TK-2) assays were performed according to the manufacturer’s instructions (Promega Corporation, Madison, WI, USA). Multipoint dose-response experiments were performed using eight kinases, namely: ABL1, BRK, BTK, CSK, FYN A, LCK, LYN B, and SRC. […] After 1 h of incubation at room temperature, kinase activity was quantified using the ADP-Glo Kinase Assay (Promega Corporation). Kinase inhibition was quantified using an Infinitive M1000 luminescence microplate spectrophotometer (Tecan, Groding, Austria).
Protocol for BRK: as §3
Protocol for BTK: as §3
Protocol for CSK: as §3
Protocol for FYN A: as §3
Protocol for Jurkat cell line: as §1, §2
Protocol for LCK: as §3
Protocol for LYN B: as §3
Protocol for MT-2 cell line: as §1, §2
Protocol for SRC: as §3

As a reminder, the IC50 is the point on the concentration scale where inhibition reaches its midpoint. Read a high IC50 as lower potency. Usually melting point stands for the temperature of the solid-liquid transition. With `O=C(CSc1nnc(Nc2ccc(C(F)(F)F)cc2)s1)Nc1ncc([N+](=O)[O-])s1` [Compound 2, N-(5-Nitrothiazol-2-yl)-2-((5-((4-(trifluoromethyl)phenyl)amino)-1,3,4-thiadiazol-2-yl)thio)acetamide], the melting point was in the range of 275 to 276.5 °C. Also, half-maximal inhibition in [1] (PBMC, MTT, 48 h of incubation, mean ± SD, three independent experiments) (IC50) required 141 ± 16 µM. Further, the “times lower cytotoxicity on PBMC than imatinib” value in data set [1] (ratio of PBMC IC50 values, 48 h) is given as ~ 5 times. In addition, the “inhibition of SRC (in words)” value on SRC was “inactive”. The same molecule gave an IC50 at SRC (setting [4]) above 100 µM. On BTK, inhibition was half-maximal at 30.2 µM (IC50). Further, the “inhibition of BTK (in words)” value at BTK (IC50 in the micromolar range) was “significantly inhibited”. In addition, in the data set on HeLa cells, the apoptotic activity is 96%; the “apoptotic and necrotic effects” value was “induced late apoptosis or necrosis”. In data set [2], this molecule had an IC50 of 33 ± 4 µM. This molecule came in with an IC50 on LCK (setting [4]) of 40.1 µM. For the same molecule, the “inhibition of LCK (in words)” value against LCK (IC50 in the micromolar range) is given as “significantly inhibited”. The molecule also returned an IC50 against FYN A of 70.8 µM. For the same molecule, the “inhibition of FYN A (in words)” value at FYN A (IC50 in the micromolar range) is “significantly inhibited”. Moreover, on BRK, the IC50 is above 100 µM and the “inhibition of BRK (in words)” value was “inactive”. For the same molecule, on LYN B, the IC50 was above 100 µM and the “inhibition of LYN B (in words)” value was “inactive”. This molecule also gave an IC50 against CSK of 18.4 µM. Moreover, the “inhibition of CSK (in words)” value on CSK (IC50 in the micromolar range) is “significantly inhibited”. The molecule further showed an IC50 in the data set with MT-2 cell line of 167 ± 8 µM. In the data set with Jurkat cell line, 17.9 ± 4 µM corresponded to half-maximal inhibition (IC50). For the same molecule, inhibition in data set [3] was half-maximal at 12.4 ± 2 µM (IC50). At ABL1, this molecule returned an IC50 of 7.4 µM.
Regarding `O=C(CSc1nnc(Nc2ccc(C(F)(F)F)cc2)s1)Nc1nc2ccc(Cl)cc2s1` [Compound 6, N-(6-Chlorobenzothiazol-2-yl)-2-((5-((4-(trifluoromethyl)phenyl)amino)-1,3,4-thiadiazol-2-yl)thio)acetamide], the IC50 was above 300 µM in data set [2], 38.3 ± 2 µM in the data set with MT-2 cell line, 54.4 ± 8 µM in the data set on Jurkat cell line and 28.7 ± 10 µM in data set [3].
Consider `COc1ccc2nc(NC(=O)CSc3nnc(Nc4ccc(C(F)(F)F)cc4)s3)sc2c1` [Compound 8, N-(6-Methoxybenzothiazol-2-yl)-2-((5-((4-(trifluoromethyl)phenyl)amino)-1,3,4-thiadiazol-2-yl)thio)acetamide], for which the IC50 in data set [2] was above 300 µM; with MT-2 cell line, above 300 µM; in the data set with Jurkat cell line, above 300 µM; in [3], 30.9 ± 4 µM.
`O=C(CSc1nnc(Nc2ccc(C(F)(F)F)cc2)s1)Nc1nc2ccc(F)cc2s1` [Compound 5, N-(6-Fluorobenzothiazol-2-yl)-2-((5-((4-(trifluoromethyl)phenyl)amino)-1,3,4-thiadiazol-2-yl)thio)acetamide] had a melting point of 309.9 to 310.8 °C. Further, the IC50 in data set [2] was above 300 µM. In the data set on MT-2 cell line, this molecule came in with an IC50 of 78.5 ± 12 µM. In the data set with Jurkat cell line, this molecule came in with an IC50 of 97.9 ± 10 µM. In data set [3], this molecule had an IC50 of 17.3 ± 8 µM.
With `CCOC(=O)Cc1csc(NC(=O)CSc2nnc(Nc3ccc(C(F)(F)F)cc3)s2)n1` [Compound 3, Ethyl 2-(2-(2-((5-((4-(trifluoromethyl)phenyl)amino)-1,3,4-thiadiazol-2-yl)thio)acetamido)thiazol-4-yl)acetate], the IC50 in data set [2] was above 300 µM; in the data set with MT-2 cell line it was above 300 µM; in the data set with Jurkat cell line it was 129 ± 6 µM; in [3], 14.1 ± 5 µM.
For `O=C(CSc1nnc(Nc2ccc(C(F)(F)F)cc2)s1)Nc1nc2ccccc2s1` [Compound 4, N-(Benzothiazol-2-yl)-2-((5-((4-(trifluoromethyl)phenyl)amino)-1,3,4-thiadiazol-2-yl)thio)acetamide], the IC50 in data set [2] is above 300 µM; in the data set with MT-2 cell line, 267 ± 14 µM; in the data set on Jurkat cell line, above 300 µM; in data set [3], 32.9 ± 2 µM.
For the molecule `CCOc1ccc2nc(NC(=O)CSc3nnc(Nc4ccc(C(F)(F)F)cc4)s3)sc2c1` [Compound 9, N-(6-Ethoxybenzothiazol-2-yl)-2-((5-((4-(trifluoromethyl)phenyl)amino)-1,3,4-thiadiazol-2-yl)thio)acetamide], the IC50 in data set [2] was above 300 µM; in the data set on MT-2 cell line it was above 300 µM; in the data set on Jurkat cell line, 96.1 ± 7 µM; in [3], 69.4 ± 7 µM. Also, the “activity against the HeLa cell line (in words)” value in [3] is listed as “no significant activity”.
`O=C(CSc1nnc(Nc2ccc(C(F)(F)F)cc2)s1)Nc1nc2ccc([N+](=O)[O-])cc2s1` [Compound 10, N-(6-Nitrobenzothiazol-2-yl)-2-((5-((4-(trifluoromethyl)phenyl)amino)-1,3,4-thiadiazol-2-yl)thio)acetamide] had a melting point of 311.8 to 312.5 °C. This molecule came in with an IC50 in [2] above 300 µM. In the data set on MT-2 cell line, the IC50 was above 300 µM. This molecule also displayed a half-inhibitory concentration (IC50) with Jurkat cell line above 300 µM. In addition, in [3], the “activity against the HeLa cell line (in words)” value is reported as “no significant activity” and the midpoint of inhibition, the IC50, lay at 75.3 ± 9 µM.
With `Cc1ccc(NC(=O)c2ccc(CN3CCN(C)CC3)cc2)cc1Nc1nccc(-c2cccnc2)n1` [Imatinib, imatinib, reference compound], in the data set on HeLa cells, the apoptotic activity is on record as 78%; the “apoptotic and necrotic effects” value is “induced late apoptosis or necrosis”.
As for `Cc1ccc2nc(NC(=O)CSc3nnc(Nc4ccc(C(F)(F)F)cc4)s3)sc2c1` [Compound 7, N-(6-Methylbenzothiazol-2-yl)-2-((5-((4-(trifluoromethyl)phenyl)amino)-1,3,4-thiadiazol-2-yl)thio)acetamide], the IC50 in data set [2] is above 300 µM; in the data set on MT-2 cell line, 198 ± 11 µM; with Jurkat cell line, above 300 µM; in data set [3] it was 30.2 ± 4 µM.
`O=C(CSc1nnc(Nc2ccc(C(F)(F)F)cc2)s1)Nc1nccs1` [Compound 1, N-(Thiazol-2-yl)-2-((5-((4-(trifluoromethyl)phenyl)amino)-1,3,4-thiadiazol-2-yl)thio)acetamide] gave a melting point of 271.4 to 272.5 °C. In data set [2] (48 h), the “activity against the K562 cell line (in words)” value was “inactive”. In addition, the IC50 in [2] was above 300 µM. In addition, the IC50 in the data set with MT-2 cell line was above 300 µM. The IC50 in the data set with Jurkat cell line was above 300 µM. Moreover, in data set [3], the “activity against the HeLa cell line (in words)” value is given as “no significant activity” and the IC50 turned out to be 135 ± 12 µM.
